The record followed here is patent US8012994B1 (priority 2006, dated 2011).

Holding throughout (assay type): in vivo, human
For series [1], the system named is sensorineural hearing loss caused by hyperbilirubinemia. Put plainly: Treatment for sensorineural hearing loss caused by hyperbilirubinemia. As to the method: Research was conducted on four patients (age 2 to 5 years) who had hyperbilirubinemia soon after birth. The hearing impairment was diagnosed when the children were examined and treated for hyperkinetic cerebral palsy. The children were not able to walk.
After the treatment, their hearing improved by 10-15 dB.

Series [2] concerns sensorineural hearing loss caused by birth injury. In words: Treatment for sensorineural hearing loss caused by birth injury. As to the method:
Research was conducted with 4 patients whose hearing loss was caused by birth injury. Two patients were twin boys […] and two patients […].
The twins had sensorineural hearing loss in both ears. […] The course was repeated in 1.5 months, and the third course was conducted in 3 months.
Treatment was then conducted according to the following pattern.
The courses were repeated every three months for three years. They received 8 and 10 courses respectively.

The test system of series [3] is hearing loss caused by toxoplasmosis. In words: Treatment for neuropathy of CN VIII: hearing loss caused by toxoplasmosis. To be noted: patient. How it is done: This research involved observation of neuropathy in the vestibulocochlear nerve of 17 patients.
In two patients, the hearing loss was caused by toxoplasmosis. In one patient, inborn toxoplasmosis was diagnosed. The other patient developed toxoplasmosis from an infected cat.
The second course was conducted in three months. After four courses of treatment, their hearing improved by 25 dB.
After 5 courses of treatment, their hearing improved by 30 dB.

Series [4] has as its system sensorineural hearing loss caused by Usher syndrome. In words: Treatment for sensorineural hearing loss caused by Usher syndrome. As to the method: A group of 4 children of 5-6 years old with Usher's syndrome were studied. They manifested profound hearing impairment of 65-75 dB alongside progressive loss of vision due to retinitis pigmentosa. These children had been previously refused treatment on the account of their disease being genetic.
In 1.5 months there was an improvement in hearing by 5 dB. […] The third course was conducted in three months according to the same pattern. After that the hearing improved by 10-15 dB.
PIRIBEDIL® is a vasodilative drug used for treating vision and hearing disorders. Applicant observed that the hearing was improved by 5-10 dB. The patients were recommended to have a follow up treatment every 6 months according to the same pattern.

Series [5] concerns neurinomas of cerebellopontine angle. Put plainly: Treatment for neurinomas of cerebellopontine angle. An excerpt:
Neurinomas of the cerebropontine angle—7 patients (2 patients and 5 people from 35 to 45 years of age).
In all 7 patients, the tumor was diagnosed late and was of a considerable size. In spite of the fact that all of them had consulted doctors, they were correctly diagnosed only after the appearance of the symptoms of damage to the facial nerve, ataxy, and complete hearing loss. Some of the patients underwent neurosurgery, including partial removal of the tumor followed by chemo- and radio-therapy. The patients manifested paralysis of the facial nerve, optic atrophy, and tinnitus, dizziness and paresis or hemisyndrom of different degrees.
After the operations, some of the patients had severe complications. […] Disorders of differentiation of words, especially in noisy environments. Some patients manifested convulsions and severe headaches. The encephalogram registered readiness for convulsions. Such patients initially underwent anticonvulsant therapy with CARBAMAZEPINE® 100 mg two times a day.
The course of treatment was repeated every 3-6 months. […] The patients started to differentiate shapes of objects, which helped them to orient in the surroundings and to come to the clinic without a guide.

The subject of the next series is meningiomas. In words: Treatment of patients with meningiomas. To be noted: 1.25 mg once a day, three courses. How it is done:
Applicant observed two patients with meningiomas. Their tumors were of a considerable size. These patients had undergone surgery, which was conducted in two stages, and was followed by chemo- and radiation therapy. These patients were practically blind, and had bilateral optic atrophy, their hearing function was impaired by 30-40 dB, they were not able to differentiate words in noisy environments. They also manifested convulsive attacks up to 15 times a day. They went through the anticonvulsant therapy, after which their convulsions occurred only for 2 times a month. […] In a month and a half, the treatment was conducted according to the following pattern. 1.25 mg once a day for 7 days, followed by a 5 day break. […] This course was repeated in 3 months. The third course was conducted in 6 months. […] These improvements satisfied the patients and no further treatment was conducted.

A further series has as its system minimal hearing loss. Put plainly: Treatment for minimal hearing loss. An excerpt: A group of patients consisting of 56 children was selected. 29 children—4 years of age and 27 children—5-6 years of age.
Minimal hearing disorders were discovered when these children were investigated for speech development delay.
The course of treatment was repeated in three months. Depending on the degree of the impairment and its cause, the patients received from 3 to 8 courses of treatment.

In series [6] the test system is sensorineural hearing loss of vascular genesis. Put plainly: Treatment for sensorineural hearing loss of vascular genesis. How it is done: A group of 24 patients at the age of 50-65 were treated for sensorineural hearing loss. […] After a 7-10 days break, the course was repeated. […] The hearing in one ear improved by 5-10 dB.
So the second intake of the drug at night was withdrawn. […] After that, they refused to continue the treatment for the lack of desired effect.
Three courses of treatment were conducted. […] Then, the patients terminated the treatment because of its high cost.

Series [7] has as its system blind mute and deaf children. Put plainly: galanthamine hydrobromide injections in blind mute and deaf children. Conditions: one of 3 patients, 7-9 years old; 0.1 ml of 0.5% solution per year of life, 15-20 injections. As to the method:
25 years ago, applicant conducted a study of a small group of blind mute and deaf children (3 patients) at the age of 7-9 years old. There was an attempt to restore their visual function using galanthamine hydrobromide solution at the dosage of 0.1 ml of 0.5% of galanthamine hydrobromide for each year of life. The course of treatment included 15-20 injections. […] This finding gave an impetus to conduct additional research into the restoration of auditory function using acetylholinesterase inhibitors in conjunction with laser stimulation.

Setting [8] is: after three courses, 0.625 mg once a day during 25 days.
Where [9] appears, read: twin boys, three courses, 2.5 mg twice a day for 20 days.
Setting [10] is: 7 patients, courses repeated every 3-6 months.
Where [11] appears, read: 18 patients, 2.5 mg a day with vasodilating treatment, three courses.

Counter-ions that a name gives are not always drawn.

Take `COc1cc2c(cc1OC)C(=O)C(CC1CCN(Cc3ccccc3)CC1)C2` (stereo not drawn) [ARICEPT®, donepezil hydrochloride]: the concentration result in series [1] (setting [8]) is “concentration improved”. Further, the hyperkinesias entry in series [1] (setting [8]) is listed as “some decrease of hyperkinesias”. Besides, the hearing result is reported as “no improvement in hearing” in series [1] (four patients 2-5 years, after three courses, 0.625 mg once a day during 25 days); “improvement of hearing” with meningiomas (2 patients, hearing impaired by 30-40 dB); “slight improvement of hearing” in series [6] (6 patients, night intake withdrawn, after the fourth course); “improved hearing in one ear” in series [6] (setting [11]). The hyperkinesia and walking entry in series [1] (patient with profound hearing loss, after ten courses) was “Hyperkinesia decreased and the patient began to walk”. Besides, the hearing threshold in series [1] (patient, threshold over 95 dB before, after ten courses) is listed as 90 dB. Moreover, the “hearing improved by” value in series [1] (two children, 10 courses, 0.625 mg twice a day for 25 days, three months break) is listed as 10-15 dB; in series [2] (person, sensorineural hearing loss of 65 dB, 2.5 mg once a day for twenty days, 10 courses over three years), 10 dB; in series [3] (0.625 mg once a day during 20 days, after four courses), 25 dB; in series [3] (2.5 mg once a day for 20 days, after 5 courses), 30 dB; in series [4] (after the third course, 1.25 mg two times a day), 10-15 dB; in [4] (two patients, after six months, with PIRIBEDIL 5 mg two times a day) it was 5-10 dB. Moreover, the “hearing improved by” value in the series on minimal hearing loss (children with sensorineural hearing loss, 1.25 mg once a day during 20 days, 3 to 8 courses) is listed as 5-10 dB. The “hearing improved by, in one ear” value in series [2] (each twin, further three courses 2.5 mg twice a day for 25 days, with PERIBEDIL 10 mg twice a day from the 4th course) is listed as 20-25 dB; in series [2] (twin boys of 10 years, three courses, 2.5 mg twice a day for 20 days, hydrochloride), 10 dB. Further, the fatiguability result in series [2] (setting [9]) is reported as “decreased fatiguability”. In addition, the speech result in [2] (setting [9]) is given as “speech became more understandable”; in the series on meningiomas (2 patients, with anticonvulsant therapy) it was “increased legibility of speech”. In series [4] (4 children 5-6 years, loss 65-75 dB, 1.25 mg 2 times a day for 20 days, in 1.5 months), the improvement in hearing was found to be 5 dB. Moreover, the results for the visual function result in series [4] (after the third course) and in series [5] (setting [10]) were “improved visual function” and “improvement in their visual function”, respectively. Further, the tinnitus result in series [5] (setting [10]) is reported as “decrease of tinnitus”; in [6] (18 of 24 patients 50-65 years, after the first course, 2.5 mg twice a day during 25 days), “decrease of tinnitus”. Besides, the “effect of further courses” value in series [5] (after 5-6 courses of treatment) is on record as “no further improvement”. Besides, the side effects entry was “headaches and sleep disturbances” in series [5] (dosage increased to 5 mg twice a day, with anticonvulsant therapy); “didn't produce side effects” in series [5] (dosage of 2.5 mg a day); “irritability and sleep disturbances” in series [6] (6 patients, 2.5 mg twice a day). For the same compound, in the series on meningiomas (2 practically blind patients), the vision result is given as “clear differentiation of the source of light”. The higher psychic functions result in the series with minimal hearing loss (56 children 4-6 years) was “improvement of higher psychic functions”. The “most noticeable improvement of phonemic hearing and speech functions observed” value in the series on minimal hearing loss (56 children 4-6 years, 1.25 mg once a day during 20 days) was “between the 3d and the 5th courses”. The “children who manifested the increase in the intellect” value in the series on minimal hearing loss (starting from the 4th course, preliminary results) is listed as 85%. In addition, the dizziness result in series [6] (setting [11]) is reported as “decrease of dizziness”. Further, the “hearing in one ear improved by” value in series [6] (after the first course, 2.5 mg twice a day during 25 days) is recorded as 5-10 dB.
With `COc1ccc2c3c1O[C@H]1C[C@@H](O)C=C[C@@]31CCN(C)C2` [galanthamine hydrobromide], the auditory function entry in series [7] is “minor improvement of auditory function”.
